How the values were obtained:
[1] = Solubility of polymorphic Form A and Form B in de-ionized water
Experimental: Lacosamide polymorphic Forms A and B were tested for solubility studies by dissolving the Form A or Form B in de-ionized water.

[2] = Drying of Example 3 wet mass at rising temperatures, polymorph checked by XRD; assay type: physicochemical; conditions: for Product characterized (based on XRD thereof) as: 6 hours
Experimental: Lacosamide (20 g) was added to ethyl acetate (120 ml) at ambient temperature and heated at 75° C. to 80° C. This was cooled to ambient temperature in 1 hour and then filtered. […] The wet mass was dried at the following temperatures each for the specified time and analyzed.

[3] = Effect of time on stability of polymorphic form; assay type: physicochemical
Experimental: Polymorphic Form A of lacosamide was kept at 0° C. to 5° C. for 3 months.
Polymorphic Form B of lacosamide was kept at 0° C. to 5° C. for 7 months.

| SMILES | Solubility status in de-ionized water (1 in 45 parts) [1] | Product characterized (based on XRD thereof) as ([2]; Example 3 wet mass dried at 35-40 °C) | Product characterized (based on XRD thereof) as ([2]; Example 3 wet mass dried at 40-45 °C) | Product characterized (based on XRD thereof) as ([2]; Example 3 wet mass dried at 45-50 °C) | Product characterized (based on XRD thereof) as ([2]; Example 3 wet mass dried at 50-55 °C) | Product characterized (based on XRD thereof) as ([2]; Example 3 wet mass dried at 55-60 °C) | Product characterized (based on XRD thereof) as ([2]; Example 3 wet mass dried at 60-65 °C) | Change in polymorph pattern on heating ([2]; heated for 36 hours in the temperature range of 35° C. to 65° C.) | Polymorphic form on reanalysis after storage ([3]; kept at 0° C. to 5° C. for 3 months) | Polymorphic form on reanalysis after storage ([3]; kept at 0° C. to 5° C. for 7 months) |
| --- | --- | --- | --- | --- | --- | --- | --- | --- | --- | --- |
| COC[C@@H](NC(C)=O)C(=O)NCc1ccccc1 [Form A, (R)-2-acetamido-N-benzyl-3-methoxypropionamide] | Sparingly soluble | Crystalline Form A | Crystalline Form A | Crystalline Form A | Crystalline Form A | Crystalline Form A | Crystalline Form A | no change in polymorph pattern | characterized as Form A |  |
| COC[C@@H](NC(C)=O)C(=O)NCc1ccccc1 [Form B, (R)-2-acetamido-N-benzyl-3-methoxypropionamide] |  |  |  |  |  |  |  |  |  | characterized as Form B |
